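1) Cells in 96-well plates. 2) Compound, 48 h, 5 concentrations. 3) Linear interpolation between surrounding doses. 4) Unreached endpoint = highest concentration. GI50 marks 50% less growth. TGI denotes the concentration required for complete inhibition of growth.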
Key:
Test in all cases: NCI-60 cell line screen, 48 h
IGROV1 ovarian = test system: IGROV1 ovarian
HOP-92 NSCLC = test system: HOP-92 NSCLC
A498 renal = test system: A498 renal
SK-MEL-5 melanoma = test system: SK-MEL-5 melanoma
MDA-MB-435 = test system: MDA-MB-435
NCI-H226 lung = test system: NCI-H226 lung
HOP-62 NSCLC = test system: HOP-62 NSCLC
SN12C renal = test system: SN12C renal
OVCAR-4 ovarian = test system: OVCAR-4 ovarian
HT29 colon = test system: HT29 colon

| SMILES | GI50 (IGROV1 ovarian) [µM] | TGI (IGROV1 ovarian) [µM] | GI50 (HOP-92 NSCLC) [µM] | TGI (HOP-92 NSCLC) [µM] | GI50 (A498 renal) [µM] | TGI (A498 renal) [µM] | GI50 (SK-MEL-5 melanoma) [µM] | TGI (SK-MEL-5 melanoma) [µM] | GI50 (MDA-MB-435) [µM] | TGI (MDA-MB-435) [µM] | GI50 (NCI-H226 lung) [µM] | TGI (NCI-H226 lung) [µM] | GI50 (HOP-62 NSCLC) [µM] | TGI (HOP-62 NSCLC) [µM] | GI50 (SN12C renal) [µM] | TGI (SN12C renal) [µM] | GI50 (OVCAR-4 ovarian) [µM] | TGI (OVCAR-4 ovarian) [µM] | GI50 (HT29 colon) [µM] | TGI (HT29 colon) [µM] |
| --- | --- | --- | --- | --- | --- | --- | --- | --- | --- | --- | --- | --- | --- | --- | --- | --- | --- | --- | --- | --- |
| CCCCCCCCOC(=O)c1c(C)[nH]c(/C=C2\N=C(c3ccc[nH]3)C=C2OC)c1C | 0.0414 | 6.81 | 0.0456 | 0.228 | 0.19 | 2 | 0.0169 | 0.0819 | 0.0226 | 1.41 | 0.0873 | 6.26 | 0.23 | 11.7 | 0.0601 | 3.55 | 0.034 | 16.8 | < 0.0179 | 1.43 |
| CC(C)c1nc(N(C)S(C)(=O)=O)nc(-c2ccc(F)cc2)c1/C=C/[C@@H](O)C[C@@H](O)CC(=O)O | > 100 | > 100 | 0.467 | 6.68 | 3.57 | 20.8 | 52.7 | > 100 | 79.9 | > 100 | > 100 | > 100 | > 100 | > 100 | 56.2 | > 100 | > 100 | > 100 | > 100 | > 100 |
| CN1CCN(CCOc2ccc(-c3cnc4c(-c5cccc(F)c5)cnn4c3)cc2)CC1 | 1.82 | 3.8 | 1.41 | 3.2 | 1.76 | 5.7 | 1.69 | 3.08 | 1.71 | 3.16 | – | – | 1.72 | 3.73 | 1.82 | 3.76 | 1.93 | 5.75 | 1.51 | 3.32 |
| CCC(C)Oc1nc2c(c(=O)n(C)c(=O)n2C)n1C (stereo not drawn) | > 100 | > 100 | > 100 | > 100 | – | – | > 100 | > 100 | > 100 | > 100 | > 100 | > 100 | > 100 | > 100 | > 100 | > 100 | > 100 | > 100 | > 100 | > 100 |
| O=S1(=O)N(Cc2ccccc2)[C@@H](Cc2ccccc2)[C@H](O)[C@H](O)[C@H](Cc2ccccc2)N1Cc1ccccc1 | 3.57 | 7.24 | 3.15 | 6.68 | 2.45 | 5.18 | 3.05 | 5.8 | 3.33 | 7.1 | 3.04 | 6.17 | 3.71 | 7.34 | 3.26 | 7.68 | 2.72 | 7.26 | 2.63 | 5.64 |
| CN(Cc1ccc(C(F)(F)F)cc1)CC(O)C(=O)Nc1ccc(Cl)cc1 (stereo not drawn) | 1.46 | 3.04 | 1.08 | 2.37 | 1.38 | 2.79 | 1.67 | 3.11 | 1.52 | 3 | 1.83 | 3.7 | 1.7 | 3.18 | 1.49 | 2.88 | 1 | 2.26 | 1.39 | 2.77 |
| CN(C)CCNC(=O)c1ccc(-c2nc3ccc4[nH]ncc4c3c3c2C2CCC3C2)cc1 (stereo not drawn) | 1.52 | 6.2 | 1.74 | 4.25 | 0.22 | 1.22 | 1.49 | 4.57 | 1.28 | 4.45 | 1.28 | 5.43 | 1.29 | 5.7 | 1.82 | 6.88 | 1.6 | 5.53 | 1.84 | 13 |
| CC[C@@]1(OC(=O)CN)C(=O)OCc2c1cc1n(c2=O)Cc2c-1nc1cc3c(cc1c2CCl)OCO3 | 0.234 | 15.1 | 0.0724 | 7.13 | 0.0661 | 1.24 | < 0.0118 | 0.5 | 0.16 | 4.15 | 0.0201 | 0.397 | < 0.01 | – | < 0.0117 | 3.76 | 0.381 | 11.3 | 0.052 | 1.22 |
| Cc1cc(Cl)ccc1OCC(=O)Nc1nc(N)nc(N)n1 | – | > 100 | – | > 100 | – | > 100 | – | > 100 | – | > 100 | – | > 100 | – | > 100 | – | > 100 | – | > 100 | – | > 100 |
| O=C1C2=C(C(=O)c3cnccc31)C1C=CC2CC1 (stereo not drawn) | 2.2 | 4.31 | 2.62 | 8.8 | 16.1 | 29.7 | 1.84 | 3.85 | 1.8 | 3.55 | 5.74 | 16.2 | 2.91 | 6.6 | 1.69 | 3.1 | 0.316 | 1.15 | 2.58 | 5.7 |
| NC(=O)c1cc(N(CCO)CCO)c([N+](=O)[O-])cc1[N+](=O)[O-] | – | > 100 | – | > 100 | – | > 100 | – | > 100 | – | > 100 | – | > 100 | – | > 100 | – | > 100 | – | > 100 | – | > 100 |
| c1cc(-c2nnc(SSc3ncnc4nc[nH]c34)o2)ccn1 | – | – | 0.582 | > 100 | 4.61 | > 100 | 3.46 | > 100 | 0.497 | > 100 | 4.63 | > 100 | 2.52 | > 100 | 6.6 | > 100 | 0.519 | > 100 | 2.42 | > 100 |
| O=c1cc(-c2ccc(O)cc2)oc2cc(O[C@@H]3O[C@H](CO)[C@@H](O)[C@H](O)[C@H]3O)cc(O)c12 | – | > 100 | – | > 100 | – | > 100 | – | > 100 | – | > 100 | – | > 100 | – | > 100 | – | > 100 | – | > 100 | – | > 100 |

Source: PubChem BioAssay (NCI)
